pIC50: −log10 of the molar value. Where two headings read alike, the source gives them in different places.
Tests used:
[1] = system: Oct-4- and Nanog-overexpressed A549 clone (A3); test: MTT cytotoxicity assay, A3 cells; assay type: cell-based; details: Homo sapiens, 48 h of drug exposure
Experimental: (§1) Non-small cell lung cancer cells A549 and Oct-4- and Nanog-overexpressed A549 clone (clone #3; A3), presented the properties of cancer stem-like cells, as well as epithelial-mesenchymal transdifferentiation, according to our previous study. They were grown in the same conditions as RPMI 1640 media supplemented with 10% fetal bovine serum (FBS), 100 units/mL penicillin, […] streptomycin, 1 mM sodium pyruvate, 2 mM l-glutamine and 1% non-essential amino acid (NEAA) in a humidified atmosphere with 5% CO2 at 37°C. Normal fibroblast cells HEL299 from American Type Culture Collection (ATCC) were grown in MEM media supplemented with 10% FBS, 100 units/mL penicillin, […] streptomycin, 1 mM sodium pyruvate, 2 mM l-glutamine and 1% NEAA, in a humidified atmosphere with 5% CO2 at 37°C.
(§2) The tetrazolium reagent (MTT; 3-(4,5-dimethylthiazol-2-yl)-2,5-diphenyl-tetrazolium bromide, USB) was designed to yield a colored formazan upon metabolic reduction by viable cells, [61]. Approximately 5×10^4 cells were plated onto each well of a 24-well plate and incubated in 5% CO2 at 37°C for 24 hours. To assess the in vitro cytotoxicity, each compound was dissolved in DMSO and prepared immediately before the experiments and then was diluted into the complete medium before being added to cell cultures. Test compounds were then added to the culture medium in various designated concentrations. After 48 hours, an amount of 100 µl of MTT was added to each well, and the samples were incubated at 37°C for 2 h. 100 µl DMSO was added to each well. The absorbency at 560 nm and reference absorbency at 670 nm were measured using an ELISA reader.

NCI-H322M = test: NCI-60 drug screen (SRB), NSCLC line NCI-H322M; assay type: cell-based, human; details: for GI50 / LC50: Homo sapiens
Experimental: (§3) As a primary screening, seven selected compounds were submitted to the National Cancer Institute (NCI) cell lines screen for evaluation of their anticancer activity. From the data analysis, it follows that approximately 95% of the actives from the 60 cell lines screen can be identified. The detailed methods used for the 60 cell lines panel have been described elsewhere [54]–[59]. Briefly, cellular protein levels were determined after 48 hours of drug exposure by SRB colorimetry. Through the use of a time zero cell control, the cell growth can be determined for each cell line thus allowing calculations of GI50, TGI, and LC50. Comparison to plates not exposed to drug permits determination of concentration and times of exposure conferring GI50, TGI, and LC50. […] By these criteria, seven compounds reported from our compounds bank were all active and passed on for evaluation in the full panel of 60 human tumor cell lines. The panel is organized into nine subpanels representing diverse histology: leukemia, melanoma, and cancers of the lung, colon, kidney, ovary, breast, prostate, and central nervous system.

A3 clone = test: Sphere formation and cell viability assay in A3 clone; assay type: cell-based, human; details: treated A3 clone; for sphere formation: serum free medium with bFGF and EGF (10 ng/ml)
NCI-H23 = test: NCI-60 drug screen (SRB), NSCLC line NCI-H23; assay type: cell-based, human; details: for GI50 / CC50: Homo sapiens; for CC50: read-out: LC50 (the source's name)
Experimental: as §3

EKVX = test: NCI-60 drug screen (SRB), NSCLC line EKVX; assay type: cell-based, human; details: for GI50 / LC50: Homo sapiens
Experimental: as §3

A549 cells = test: MTT cytotoxicity assay, A549 cells; assay type: cell-based; details: Homo sapiens, 48 h of drug exposure
Experimental: as §1, §2

A549/ATCC = test: NCI-60 drug screen (SRB), NSCLC line A549/ATCC; assay type: cell-based, human; details: for GI50 / LC50 (concentration killing 50% of cells): Homo sapiens
Experimental: as §3

[2] = system: PARP-1 mRNA expression in A3 cells; test: Quantitative RT-PCR of PARP-1 in treated A3 cells; assay type: cell-based, human
Source text: RNA was isolated from cells with the TRIzol (Invitrogen) reagent […], and this was followed by RNA clean up with the RNeasy Minikit (QIAGEN). cDNA was produced with the First Strand cDNA Synthesis Kit (Roche). Real-time quantitative PCR reactions were set up in triplicate with the Brilliant II SYBR Green QPCR Master Mix (Stratagene) and run on an Mx3000P QPCR System (Stratagene).

NCI-60 cancer cell lines = test: NCI-60 panel of human tumor cell lines, median GI50; assay type: cell-based; details: median over NCI-60 cancer cell lines, read-out: median 50% growth inhibitory concentration (GI50)
Experimental: as §3

NCI-H522 = test: NCI-60 drug screen (SRB), NSCLC line NCI-H522; assay type: cell-based, human; details: for GI50 / CC50: Homo sapiens; for CC50: read-out: LC50 (the source's name)
Experimental: as §3

HOP-92 = test: NCI-60 drug screen (SRB), NSCLC line HOP-92; assay type: cell-based, human; details: for GI50 / CC50: Homo sapiens; for CC50: read-out: LC50 (the source's name)
Experimental: as §3

[3] = 48 hours drug exposure, SRB, read-out: GI50
[4] = NCI in vitro 60-cell lines Drug Screen, read-out: -Log GI50 (converted)

Row | SMILES | pIC50 [1] | TGI (NCI-H322M; 48 hours drug exposure, SRB) | GI50 (NCI-H322M; [3]) | GI50 (NCI-H322M; [4]) | cell growth / cell viability (A3 clone) | sphere formation (A3 clone) | TGI (NCI-H23; 48 hours drug exposure, SRB) | GI50 (NCI-H23; [3]) | CC50 (NCI-H23; 48 hours drug exposure, SRB) | GI50 (NCI-H23; [4]) | TGI (EKVX; 48 hours drug exposure, SRB) | GI50 (EKVX; [3]) | GI50 (EKVX; [4]) | pIC50 (A549 cells) | TGI (A549/ATCC; 48 hours drug exposure, SRB) | GI50 (A549/ATCC; [3]) | GI50 (A549/ATCC; [4]) | expression levels of PARP-1 (mRNA) [2] | TGI (NCI-H522; 48 hours drug exposure, SRB) | GI50 (NCI-H522; [3]) | other results
1 | CN(C)CCCSc1nc2ccc3c(c2[nH]1)C(=O)c1ccccc1C3=O [NSC747854] | 5.23 | 20.6 µM | 0.72 µM | 0.724 µM | inhibit the cell growth | effectively block the sphere formation | 19.7 µM | 5.73 µM | 46.9 µM | 5.75 µM | 20.1 µM | 4.2 µM | 4.17 µM | 4.91 | 12.6 µM | 3.26 µM | 3.24 µM | inhibit the expression levels of PARP-1 | 24.9 µM | 1.22 µM | GI50 (NCI-60 cancer cell lines): 6.92 µM; CC50 (NCI-H522; 48 hours drug exposure, SRB): 50 µM; GI50 (NCI-H522; [4]): 12.3 µM
2 | Cc1ccc(C(=O)Nc2c(NC(=O)CCl)ccc3c2C(=O)c2ccccc2C3=O)cc1 [NSC749232] | 5.31 | 13.7 µM | 3.76 µM | 3.8 µM | inhibit the cell growth | effectively block the sphere formation | 8.28 µM | 1.78 µM | 31.4 µM | 1.78 µM | 14.9 µM | 1.98 µM | 2 µM | 5.18 | 29.2 µM | 12.3 µM | 12.3 µM | inhibit the expression levels of PARP-1 | 2.03 µM | 8.95 µM | LC50 (NCI-H322M; 48 hours drug exposure, SRB): 45.4 µM; LC50 (EKVX; 48 hours drug exposure, SRB): > 100 µM; LC50 (concentration killing 50% of cells) (A549/ATCC; 48 hours drug exposure, SRB): > 100 µM; TGI (HOP-92; 48 hours drug exposure, SRB): 31.7 µM; GI50 (HOP-92; [3]): 9.73 µM; CC50 (HOP-92; 48 hours drug exposure, SRB): > 100 µM; GI50 (HOP-92; [4]): 9.77 µM; GI50 (NCI-H522; [4]): 0.891 µM
3 | CN1CCN(Cc2nc3ccc4c(c3[nH]2)C(=O)c2ccccc2C4=O)CC1 [NSC749235] | 5.12 | 43.3 µM | 8.7 µM | 8.71 µM | inhibit the cell growth | effectively block the sphere formation | 30.1 µM | 10.7 µM | 84.8 µM | 10.7 µM | 28.8 µM | 6.69 µM | 6.76 µM | 4.97 | 24.3 µM | 7.58 µM | 7.59 µM | inhibit the expression levels of PARP-1 | 29.0 µM | 13.8 µM | LC50 (NCI-H322M; 48 hours drug exposure, SRB): > 100 µM; LC50 (EKVX; 48 hours drug exposure, SRB): > 100 µM; LC50 (concentration killing 50% of cells) (A549/ATCC; 48 hours drug exposure, SRB): 67.2 µM; TGI (HOP-92; 48 hours drug exposure, SRB): 91.8 µM; GI50 (HOP-92; [3]): 7.97 µM; CC50 (HOP-92; 48 hours drug exposure, SRB): > 100 µM; GI50 (HOP-92; [4]): 7.94 µM; CC50 (NCI-H522; 48 hours drug exposure, SRB): 61 µM; GI50 (NCI-H522; [4]): 13.8 µM

From PMC3581553, “New Approaches of PARP-1 Inhibitors in Human Lung Cancer Cells and Cancer Stem-Like Cells by Some Selected Anthraquinone-Derived Small Molecules” (PLoS ONE, 2013)
